By IC50 is commonly meant the concentration that inhibits the measured activity by half.

Consider four compounds from article PMC11760092, “Pretreatment with serine protease inhibitors impairs Leishmania amazonensis survival on macrophages” (Parasites & Vectors, 2025).

Read-outs that look alike come from different tables or passages of the source.

Series [1] deals with peritoneal macrophages from BALB/c mice. As to the kind of experiment: Cytotoxicity assay (MTT). It counts as cell-based. The following applies: 72 h of incubation; MTT; interval in brackets. As for the experimental part:
To determinate the toxicity of the inhibitors on mammalian cells, peritoneal macrophages from BALB/c mice, obtained by peritoneal lavage, in concentration of 2 × 10^6 macrophages/mL, were adhered in 96-well culture plates overnight at 37 °C with 5% CO2. The inhibitors were then added in different concentrations and incubated for 72 h at 37 °C and 5% CO2. Cell viability was also assessed by the MTT method. Cytotoxic concentration of 50% of macrophages (CC50) values were calculated using GraPadPrism 8 software. Three independent experiments in triplicate were performed.

In series [2] the test system is L. amazonensis in peritoneal macrophages. As to the kind of experiment: Promastigote pretreatment and infection of peritoneal macrophages. In kind it is cell-based, Leishmania amazonensis. The conditions noted are these: for entry of promastigotes into macrophages: promastigotes pretreated 1 h, 0 h after 4 h interaction. The procedure: (§1) Leishmania amazonensis-RFP promastigotes were pretreated with different concentrations of inhbitors during 1 h at 25 °C. The cells were washed with PBS and used to infect peritoneal macrophages from BALB/c mice (10:1 ratio), not pretreated or pretreated with 0.5 ng/mL IFN-γ overnight, in 24-well plates. After 4 h of interaction, the plates were washed with PBS and (1) scraped to remove attached cells and read using a spectrofluorimeter (time = 0 h) or (2) incubated at 33 °C with 5% CO2 for 24 h, 48 h, and 72 h for later scraping and reading (times = 24 h, 48 h, and 72 h). Three experiments were performed, each one with three replicates.
The same experiment was repeated, but using 13 mm glass coverslips in 24-well plates. The fixation with ethanol and staining with Giemsa were performed. Subsequently, the slides were examined in an optical microscope (Olympus BX53, Shinjuku, Tokyo, Japan) and photographed (Olympus DP73, Shinjuku, Tokyo, Japan).

Series [3] concerns Leishmania amazonensis-RFP promastigotes. As to the kind of experiment: Viability of promastigotes after 1 h of treatment with inhibitors. In kind it is cell-based. The conditions noted are these: 1 h treatment, washed; for viability of promastigotes after 1 h of treatment, compared with the control: 0 h, 24 h, 48 h and 72 h of incubation. The procedure: Leishmania amazonensis-RFP promastigotes were treated with different concentrations of inhibitors during 1 h at 25 °C and were washed with PBS. Then, these cells had their viability determined by fluorescence analysis using a spectrofluorimeter (time = 0 h) and were also reincubated in complete RPMI medium for subsequent analysis of cell viability after 24 h, 48 h, and 72 h (times = 24 h, 48 h, and 72 h) by fluorescence analysis.

Series [4] deals with Leishmania amazonensis-WT promastigotes. As to the kind of experiment: Antipromastigote assay (MTT). It counts as cell-based. The following applies: for IC50: 72 h of incubation, interval in brackets, read-out: Antileishmanial effect in Leishmania amazonensis IC50 Promastigote. As for the experimental part: Leishmania amazonensis–WT promastigotes, in the logarithmic phase of growth, were transferred to 96-well culture plates (final concentration 2 × 10^6 cells/mL) and exposed to different concentrations of inhbitors during 72 h at 25 °C. The cell viability was evaluated by the 3-(4,5-dimethylthiazol-2-yl)-2,5 diphenyltetrazolium bromide (MTT) method (obtained from Sigma-Aldrich). The inhibitory concentration of 50% of parasite growth (IC50) values were calculated using GraphPad Prism 8 software […]. Three independent experiments in triplicate were performed. Amphotericin B (Cristália, São Paulo, SP, Brazil) was used as a reference drug.

Series [5] relates to L. amazonensis (RFP) amastigotes. Put plainly: Antiamastigote assay (RFP fluorescence, infected peritoneal macrophages). It counts as cell-based. The conditions noted are these: 72 h of incubation; interval in brackets; read-out: Antileishmanial effect in Leishmania amazonensis IC50 Amastigote. As for the experimental part:
Peritoneal macrophages from BALB/c mice were obtained by peritoneal lavage and distributed in 24-well plates at 2 × 10^6 cells/mL in RPMI medium (Cultilab) containing 10% FBS and a 0.5% penicillin and streptomycin solution (complete RPMI). The plates were incubated for 1 h at 37 °C and 5% CO2, washed with phosphate-buffered saline (PBS), and then reincubated in complete RPMI medium overnight. The cells were washed again with PBS and infected with stationary growth phase L. amazonensis (RFP) promastigotes at a 10:1 ratio for 4 h at 33 °C. The plates were washed with PBS and the inhibitors were added at different concentrations and incubated for 72 h. After this time, each well was scraped to remove attached cells and the reading was taken with a spectrofluorimeter (FLx800, BioTek Instruments, Winooski, VT, USA) at 530 nm and 590 nm of excitation and emission, respectively. […] All assays were performed in triplicate and repeated three times. Results were calculated as the percentage of amastigote survival compared with the nontreated control group, and IC50 values were determined using GraphPad Prism 8 software.

Series [6] deals with L. amazonensis promastigotes. Further details: method as in PMID 17726617. The conditions noted are these: 100 µM, cited from earlier work.
For series [7], the system named is L. donovani serine proteases. Further details: method as in PMID 26040107. The following applies: concentration not given; cited from earlier work.
The test system of series [8] is L. donovani promastigotes. Details: method as in PMID 26040107. The following applies: concentration not given; cited from earlier work.
Series [9] has as its system peritoneal macrophages from BALB/c mice. Details: method as in PMID 35678670, PMID 33584607, PMID 35890269. The conditions noted are these: 72 h of incubation; previously published data (*); cited from earlier work.
Series [10] relates to L. amazonensis serine proteases. As to the kind of experiment: Enzymatic assay on promastigote lysate with substrate ABZ-V-F-R-S-L-K-Q EDDnp. It counts as biochemical, Leishmania amazonensis. The conditions noted are these: 2.5 µM inhibitor, first 10 min. The procedure: The enzymatic assay was conducted in a final volume of 200 µL per well, containing 1 µM of substrate, supernatant of lysate of 3.7 × 10^6 parasites, 2.5 µM of inhibitors (PF-429242 and TPCK) or 3 µM of E-64 in Tris-buffered pH 8. Substrate ABZ-V-F-R-S-L-K-Q EDDnp was used, which was provided by Dr. Luiz Juliano Neto from the Department of Biophysics of UNIFESP-EPM and is described in Alves, L.C. et al.. The lysate was prepared with promastigotes in stationary phase of growth, washed three times with PBS pH 7.2, and in the last wash it was resuspended in Tris-buffered pH 8 with 1% NP40. The parasites were submitted to five rapid freeze–thaw cycles in liquid nitrogen. The lysate was centrifuged at 20,000g for 10 min at […]. The supernatant was stored at −20 °C until use. The read was carried out using the spectrofluorimeter SoftMax M3 with excitation/emission of 320/420 nm.

Series [11] has as its system L. amazonensis in peritoneal macrophages prestimulated with IFN-γ. As to the kind of experiment: Promastigote pretreatment and infection of macrophages prestimulated with IFN-γ. It counts as cell-based, Leishmania amazonensis. The conditions noted are these: macrophages prestimulated with 0.5 ng/mL IFN-γ overnight; promastigotes pretreated 1 h. As for the experimental part: as §1

Series [12] has as its system NO production by host macrophages. Put plainly: Determination of nitric oxide (NO) levels (Griess method). It counts as cell-based, BALB/c mice. The conditions noted are these: supernatant of macrophages infected with promastigotes pretreated for 1 h. The procedure: Supernatant from cultures of L. amazonensis-infected macrophages, in which promastigotes were pretreated or not with PF-429242 or TPCK, was collected, and NO levels were determined by the Griess method. NO levels were determined in aliquots of 50 µL of the supernatant, to which 50 µL of the Griess reagent were added (Griess Reagent: 1% sulfanilamide in 2.5% of H3PO4 + 0.1% N-1-diidrocloride naftiletilenodiamine in 2.5% H3PO4), in a 96-well microplate. Nitrite content was quantified by comparison with a sodium nitrite standard curve. The absorbance was measured at 540 nm using a spectrophotometer (Multiskan EX, Thermo Electron Corporation, Vantaa, Finland). The assays were carried out in duplicate and three independent experiments were realized. Macrophages prestimulated with 0.5 ng/mL IFN-γ overnight and infected with L. amazonensis promastigotes without pretreatment were used as positive controls.
In general terms: Nitrite, measured by Griess reagent, commonly stands in for NO production.

Series [13] has as its system L. amazonensis (RFP) amastigotes. Details: method as in PMID 35678670, PMID 33584607, PMID 35890269. The following applies: 72 h of incubation; previously published data (*); read-out: Antileishmanial effect in Leishmania amazonensis IC50 Amastigote; cited from earlier work.
The subject of series [14] is Leishmania amazonensis-WT promastigotes. Details: method as in PMID 35678670, PMID 33584607, PMID 35890269. The conditions noted are these: 72 h of incubation; previously published data (*); read-out: Antileishmanial effect in Leishmania amazonensis IC50 Promastigote; cited from earlier work.
In series [15] the test system is L. amazonensis promastigotes and amastigotes. The conditions noted are these: cited from earlier work.
In a further series the test system is L. amazonensis. The following applies: mice infected with L. amazonensis; cited from earlier work.
The subject of series [16] is L. amazonensis serine proteases. Further details: method as in PMID 25583728. The conditions noted are these: cited from earlier work.

On to `O=S(=O)(F)Cc1ccccc1` [PMSF], for which the CC50 in series [1] was 269 µM. In addition, in series [2], the “entry of promastigotes into macrophages” value is recorded as “did not change the entry”. The “permanence and survival of amastigotes within host cells” value in series [2] (promastigotes pretreated 1 h with 200 µM or 6.25 µM, up to 72 h) is “did not alter the permanence and survival”. In addition, the “viability of promastigotes after 1 h of treatment, compared with the control” value (“viability … compared with the control” below) in series [3] was “did not change the viability”. Besides, the half-inhibitory concentration (IC50) in [4] and in series [5] was greater than 200 µM each time.

As for `Cc1ccc(S(=O)(=O)N[C@@H](CCCCN)C(=O)CCl)cc1` [TLCK], the CC50 in series [1] amounted to 104 µM. For the same compound, the “entry of promastigotes into macrophages” value in series [2] is recorded as “occurred similarly to the control”. The “survival of parasites within macrophages” value in series [2] (promastigotes pretreated 1 h with 100 µM, 48 h and 72 h of infection) was “slightly reduced”. In series [6], the “viability of L. amazonensis promastigotes” value was “did not reduce promastigote viability”. In [7], the “inhibition of the proteolytic activity” value is given as 18%. In addition, in series [3], the “viability … compared with the control” value was “did not change the viability”. The IC50 was 52.5 µM in series [4] and 140 µM in series [5]. The “inhibition of the parasite's viability” value in series [4] (promastigotes, 6.25 µM) is “around 10%”. Besides, the “cell viability of L. donovani promastigotes (reduction)” value in series [8] is “only did so after 15 h and 20 h”.

As for `Cc1ccc(S(=O)(=O)N[C@@H](Cc2ccccc2)C(=O)CCl)cc1` [TPCK, N-p-tosyl-L-phenylalanine chloromethyl ketone], the CC50 in series [9] was 139 µM. The “enzymatic activity of L. amazonensis serine proteases” value in series [10] is “able to inhibit the enzymatic activity”. In series [2] (pretreated parasites (PF-429242 3.2 µM, TPCK 30 µM)), the “conversion of promastigotes into amastigotes” value is “no difficulty was observed in conversion”. In addition, the “number of intracellular amastigotes (Giemsa, Supplementary Fig. 1)” value in [2] (pretreatment with PF-429242 3.2 µM or TPCK 30 µM, 48 h and 72 h after infection) is listed as “reduction in the number of amastigotes”. The “entry of promastigotes into macrophages” value in [2] is reported as “did not alter the entry”. Also, the “survival of parasites within macrophages compared with the negative control” value in series [2] (promastigotes pretreated 1 h with 30 µM or 15 µM, 24 h and 48 h after infection) is recorded as “reduced survival”; in [2] (promastigotes pretreated 1 h with 30 µM, 15 µM or 7.5 µM, 72 h after infection) it was “reduced survival”. Also, the “intracellular survival of L. amazonensis” value in series [11] was “impairs the intracellular survival”. The “NO production versus control group” value in series [12] is “no difference in NO production”. In addition, the “viability of L. amazonensis promastigotes” value in [6] (after 4 h, 24 h, 48 h and 72 h of incubation) is given as “reducing cell viability”. The “inhibition of the proteolytic activity” value in series [7] is 52%. Besides, the “viability of promastigotes after 1 h of treatment” value in series [3] (30 µM, after 72 h of incubation) is reported as “slight reduction in the viability”. For the same compound, the “viability … compared with the control” value in [3] is “not able to change cell viability”. The IC50 was 14.2 µM in series [13] and 14.6 µM in [14]. In addition, the “cell viability of L. donovani promastigotes (reduction)” value in series [8] was “only did so after 15 h and 20 h”. For the same compound, the “growth of promastigotes and intracellular amastigotes” value in series [15] (L. amazonensis) is “growth inhibition of promastigotes and intracellular amastigotes”. Moreover, in the series on L. amazonensis, the “lesion size and parasite load” value is “reduction in lesion size and parasite load”.

For epoxy-α-lapachone, the “inhibition of L. amazonensis serine proteases” value in series [16] was “inhibited L. amazonensis serine proteases”. In addition, in [15], the “effect on promastigotes and amastigotes of L. amazonensis” value is “effective against promastigotes and amastigotes”. The lesion size entry in the series on L. amazonensis is on record as “reduction of the lesion size”.
